Test results taken from publication PMC4704863 (Angewandte Chemie (International ed. in English), 2014).
Ends that are not written are not given here. Peptide text beside a SMILES is read from it. * marks the point of attachment. Palmitoyl = CCCCCCCCCCCCCCCC(=O)*

Assays:
hY4R [1] = target: T1, hY4R (Homo sapiens, UniProt P50391); format: cell-based; conditions: Col-24 epithelial layers, response to 10 nM hPP after prestimulation
hY4R [2] = target: T1, hY4R; experiment: Arr3–receptor interaction by BRET; format: cell-based; conditions: arr3 association after 10 min
Col-24 epithelial layers = experiment: Antisecretory responses; format: cell-based, human
[3] = target: human neuropeptide Y receptor Y4 (hY4R) (human) (UniProt P50391); experiment: radioligand binding
[4] = target: human neuropeptide Y receptor Y4 (hY4R) (human, UniProt P50391 1-375); experiment: radioligand binding
[5] = Col-24 epithelial layers, 100 nM peptide

T1 sequence (P50391 whole entry): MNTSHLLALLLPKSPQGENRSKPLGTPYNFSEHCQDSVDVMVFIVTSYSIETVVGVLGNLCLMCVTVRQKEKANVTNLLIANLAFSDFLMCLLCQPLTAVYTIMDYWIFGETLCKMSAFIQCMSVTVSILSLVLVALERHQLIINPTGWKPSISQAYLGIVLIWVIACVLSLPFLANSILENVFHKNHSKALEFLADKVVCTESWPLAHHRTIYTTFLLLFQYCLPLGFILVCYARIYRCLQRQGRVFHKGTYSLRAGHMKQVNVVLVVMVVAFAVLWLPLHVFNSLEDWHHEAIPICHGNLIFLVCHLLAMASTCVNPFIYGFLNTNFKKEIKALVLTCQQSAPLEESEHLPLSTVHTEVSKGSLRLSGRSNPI
Chain of human neuropeptide Y receptor Y4 (hY4R) (human) (P50391 whole entry): as above
Chain of human neuropeptide Y receptor Y4 (hY4R) (P50391 whole entry): as above

Molecule	Desensitization of hY4R after prestimulation (hY4R [1])	arr3 recruitment, maximal netBRET (BRETmax) (hY4R [2])	Isc response, time course (Col-24 epithelial layers; [5])	IC50 [3] [nM]	other results
CCCCCCCCCCCCCCCC(=O)NCCCC[C@H](NC(=O)[C@H](C)NC(=O)[C@H](Cc1ccc(O)cc1)NC(=O)[C@H](CCC(N)=O)NC(=O)[C@H](C)NC(=O)[C@H](CCSC)NC(=O)[C@H](CCC(N)=O)NC(=O)[C@H](CCC(=O)O)NC(=O)[C@@H]1CCCN1C(=O)[C@@H](NC(=O)[C@H](C)NC(=O)[C@H](CC(N)=O)NC(=O)[C@H](CC(=O)O)NC(=O)CNC(=O)[C@@H]1CCCN1C(=O)[C@H](Cc1ccc(O)cc1)NC(=O)[C@@H](NC(=O)[C@@H]1CCCN1C(=O)[C@H](CCC(=O)O)NC(=O)[C@H](CC(C)C)NC(=O)[C@@H]1CCCN1C(=O)[C@H](C)N)C(C)C)[C@@H](C)O)C(=O)N[C@@H](CC(=O)O)C(=O)N[C@@H](CC(C)C)C(=O)N[C@@H](CCCNC(=N)N)C(=O)N[C@@H](CCCNC(=N)N)C(=O)N[C@@H](Cc1ccc(O)cc1)C(=O)N[C@H](C(=O)N[C@@H](CC(N)=O)C(=O)N[C@@H](CCSC)C(=O)N[C@@H](CC(C)C)C(=O)N[C@H](C(=O)N[C@@H](CCCNC(=N)N)C(=O)N[C@@H](CCC(N)=O)C(=O)N[C@@H](CCCNC(=N)N)C(=O)N[C@@H](Cc1ccc(O)cc1)C(N)=O)[C@@H](C)O)[C@@H](C)CC [3A] (H-APLEPVYPGDNATPEQMAQYAK(Palmitoyl)DLRRYINMLTRQRY-NH2; N-terminus and C-terminus assumed)	concentration-dependent desensitization	increased arr3 recruitment	prolonged reductions in Isc	–	Concentration–response in Col-24 cells (potency and efficacy) (Col-24 epithelial layers; Col-24 cells, Isc): good activity and increased efficacy; Onset of Isc response (Col-24 epithelial layers; [5]): delayed; Maximum of Isc response (Col-24 epithelial layers; Col-24 epithelial layers, 100 nM peptide, compared with 2A): higher maximum than the parental peptide
APLEPVYPGDNATPEQMAQYAKDLRRYINMLTRQRY-NH2 [2A]	concentration-dependent desensitization	robust arr3 recruitment	rapid and transient activity	–	Time of maximum Isc effect (Col-24 epithelial layers; [5]): about 5 min
PEG5-modified [K^22,Q^34]hPP (4A) (peptide)	–	–	–	36.8	–
PEG22-modified [K^22,Q^34]hPP (5A) (peptide)	–	–	–	94.2	–
palmitoylated [K^22,Q^34]hPP (3A) (peptide)	–	–	–	1.2	–
APLEPVYPGDNATPEQMAQYAKDLRRYINMLTRQRY (ends and bridges not checked) [lead peptide 2A ([Q^34]hPP core sequence, Obinepitide)]	–	–	–	–	IC50 [4]: 0.5 nM
